# Measured values from ChEMBL document CHEMBL3885881, “DrugMatrix”.
# Species on record: Rattus norvegicus
# Test: DrugMatrix - Regimen: Daily Repeat
# Type: toxicity, organism-based, Sprague-Dawley
# Design: regimen Daily Repeat, gender Male, age 6-8 weeks
# Conditions: in vivo, po, route oral GAVAGE, vehicle .5 % CMC; for ABSOLUTE BASOPHIL / ABSOLUTE EOSINOPHIL / ABSOLUTE LYMPHOCYTE / ABSOLUTE MONOCYTE / ABSOLUTE SEGMENTED NEUTROPHIL / BASOPHIL / EOSINOPHIL / ERYTHROCYTE COUNT / HEMATOCRIT / HEMOGLOBIN / LEUKOCYTE COUNT / LYMPHOCYTE / MEAN CORPUSCULAR HEMOGLOBIN / MEAN CORPUSCULAR HEMOGLOBIN CONCENTRATION / MEAN CORPUSCULAR VOLUME / MONOCYTE / NEUTROPHIL / NUCLEATED RED BLOOD CELLS / PLATELET COUNT: tissue Blood; for ALANINE AMINOTRANSFERASE / ALBUMIN / ALKALINE PHOSPHATASE / ASPARTATE AMINOTRANSFERASE / BLOOD UREA NITROGEN / CARBON DIOXIDE / CHLORIDE / CHOLESTEROL / CREATINE PHOSPHOKINASE / CREATININE / GLUCOSE / LACTATE DEHYDROGENASE / LIPASE / PHOSPHORUS / POTASSIUM / SODIUM / TOTAL BILIRUBIN / TOTAL PROTEIN / URIC ACID: tissue Plasma
# [1] = 0 mg/kg, 72 h, dose level Control, time 3 day
# [2] = 0 mg/kg, 120 h, dose level Control, time 5 day
# [3] = 100 mg/kg, 72 h, dose level Low, time 3 day
structure (smiles),measurement,setting,value
NC(=O)CN1CCCC1=O,ABSOLUTE BASOPHIL,[1],0 CELLS/uL
same,ABSOLUTE EOSINOPHIL,[1],0 CELLS/uL
same,ABSOLUTE LYMPHOCYTE,[1],12191.17 CELLS/uL
same,ABSOLUTE MONOCYTE,[1],183.17 CELLS/uL
same,ABSOLUTE SEGMENTED NEUTROPHIL,[1],1192.33 CELLS/uL
same,BASOPHIL,[1],0%
same,EOSINOPHIL,[1],0%
same,ERYTHROCYTE COUNT,[1],5.51 x10E6/uL
same,HEMATOCRIT,[1],35.45%
same,HEMOGLOBIN,[1],13.82 G/DL
same,LEUKOCYTE COUNT,[1],13.57 x10E3/uL
same,LYMPHOCYTE,[1],89.83%
same,MEAN CORPUSCULAR HEMOGLOBIN,[1],25.1 pg
same,MEAN CORPUSCULAR HEMOGLOBIN CONCENTRATION,[1],38.98 G/DL
same,MEAN CORPUSCULAR VOLUME,[1],64.42 fL
same,MONOCYTE,[1],1.33%
same,NEUTROPHIL,[1],8.83%
same,NUCLEATED RED BLOOD CELLS,[1],0 /100WBC
same,PLATELET COUNT,[1],1118.17 x10E3/uL
same,ALANINE AMINOTRANSFERASE,[1],55 u/L
same,ALBUMIN,[1],4.15 G/DL
same,ALKALINE PHOSPHATASE,[1],449.5 u/L
same,ASPARTATE AMINOTRANSFERASE,[1],112.83 u/L
same,BLOOD UREA NITROGEN,[1],17.33 mg/dL
same,CARBON DIOXIDE,[1],29.5 mmol/L
same,CHLORIDE,[1],101 MEQ/L
same,CHOLESTEROL,[1],70 mg/dL
same,CREATINE PHOSPHOKINASE,[1],1325.83 u/L
same,CREATININE,[1],0.18 mg/dL
same,GLUCOSE,[1],171.5 mg/dL
same,LACTATE DEHYDROGENASE,[1],386 u/L
same,LIPASE,[1],10 u/L
same,PHOSPHORUS,[1],11.57 mg/dL
same,POTASSIUM,[1],6.21 MEQ/L
same,SODIUM,[1],141.65 MEQ/L
same,TOTAL BILIRUBIN,[1],0.15 mg/dL
same,TOTAL PROTEIN,[1],5.75 G/DL
same,URIC ACID,[1],1.28 mg/dL
same,ABSOLUTE BASOPHIL,[2],0 CELLS/uL
same,ABSOLUTE EOSINOPHIL,[2],138.17 CELLS/uL
same,ABSOLUTE LYMPHOCYTE,[2],13283.17 CELLS/uL
same,ABSOLUTE MONOCYTE,[2],303.83 CELLS/uL
same,ABSOLUTE SEGMENTED NEUTROPHIL,[2],1308.17 CELLS/uL
same,BASOPHIL,[2],0%
same,EOSINOPHIL,[2],1%
same,ERYTHROCYTE COUNT,[2],5.32 x10E6/uL
same,HEMATOCRIT,[2],33.8%
same,HEMOGLOBIN,[2],13.63 G/DL
same,LEUKOCYTE COUNT,[2],15.03 x10E3/uL
same,LYMPHOCYTE,[2],88.33%
same,MEAN CORPUSCULAR HEMOGLOBIN,[2],25.68 pg
same,MEAN CORPUSCULAR HEMOGLOBIN CONCENTRATION,[2],40.35 G/DL
same,MEAN CORPUSCULAR VOLUME,[2],63.67 fL
same,MONOCYTE,[2],1.83%
same,NEUTROPHIL,[2],8.83%
same,NUCLEATED RED BLOOD CELLS,[2],0 /100WBC
same,PLATELET COUNT,[2],1097.5 x10E3/uL
same,ALANINE AMINOTRANSFERASE,[2],54.5 u/L
same,ALBUMIN,[2],4.27 G/DL
same,ALKALINE PHOSPHATASE,[2],337 u/L
same,ASPARTATE AMINOTRANSFERASE,[2],94.67 u/L
same,BLOOD UREA NITROGEN,[2],17 mg/dL
same,CARBON DIOXIDE,[2],28.33 mmol/L
same,CHLORIDE,[2],101.5 MEQ/L
same,CHOLESTEROL,[2],71.33 mg/dL
same,CREATINE PHOSPHOKINASE,[2],628.17 u/L
same,CREATININE,[2],0.19 mg/dL
same,GLUCOSE,[2],177.83 mg/dL
same,LACTATE DEHYDROGENASE,[2],500.5 u/L
same,LIPASE,[2],9.5 u/L
same,PHOSPHORUS,[2],12.3 mg/dL
same,POTASSIUM,[2],5.63 MEQ/L
same,SODIUM,[2],143.03 MEQ/L
same,TOTAL BILIRUBIN,[2],0.2 mg/dL
same,TOTAL PROTEIN,[2],6.02 G/DL
same,URIC ACID,[2],1.5 mg/dL
same,ABSOLUTE BASOPHIL,[3],0 CELLS/uL
same,ABSOLUTE EOSINOPHIL,[3],0 CELLS/uL
same,ABSOLUTE LYMPHOCYTE,[3],10885.67 CELLS/uL
same,ABSOLUTE MONOCYTE,[3],0 CELLS/uL
same,ABSOLUTE SEGMENTED NEUTROPHIL,[3],981 CELLS/uL
same,BASOPHIL,[3],0%
same,EOSINOPHIL,[3],0%
same,ERYTHROCYTE COUNT,[3],5.15 x10E6/uL
same,HEMATOCRIT,[3],32.9%
same,HEMOGLOBIN,[3],13.47 G/DL
same,LEUKOCYTE COUNT,[3],11.87 x10E3/uL
same,LYMPHOCYTE,[3],92%
same,MEAN CORPUSCULAR HEMOGLOBIN,[3],26.17 pg
same,MEAN CORPUSCULAR HEMOGLOBIN CONCENTRATION,[3],40.97 G/DL
same,MEAN CORPUSCULAR VOLUME,[3],63.87 fL
same,MONOCYTE,[3],0%
same,NEUTROPHIL,[3],8%
same,NUCLEATED RED BLOOD CELLS,[3],0 /100WBC
same,PLATELET COUNT,[3],1222.67 x10E3/uL
same,ALANINE AMINOTRANSFERASE,[3],51.33 u/L
same,ALBUMIN,[3],4.07 G/DL
same,ALKALINE PHOSPHATASE,[3],403 u/L
same,ASPARTATE AMINOTRANSFERASE,[3],87.67 u/L
same,BLOOD UREA NITROGEN,[3],15 mg/dL
same,CARBON DIOXIDE,[3],25 mmol/L
same,CHLORIDE,[3],102.33 MEQ/L
same,CHOLESTEROL,[3],61 mg/dL
same,CREATINE PHOSPHOKINASE,[3],556.33 u/L
same,CREATININE,[3],0.2 mg/dL
same,GLUCOSE,[3],204.67 mg/dL
same,LACTATE DEHYDROGENASE,[3],170.67 u/L
same,LIPASE,[3],10 u/L
same,PHOSPHORUS,[3],13.13 mg/dL
same,POTASSIUM,[3],5.4 MEQ/L
same,SODIUM,[3],143.3 MEQ/L
same,TOTAL BILIRUBIN,[3],0.1 mg/dL
same,TOTAL PROTEIN,[3],5.5 G/DL
same,URIC ACID,[3],1.8 mg/dL
